According to patent US11697798B2, “Enhanced differentiation and maturation of pluripotent stem cell-derived myogenic cells” (Regents of the University of Minnesota, priority 2017, dated 2023):

Tests used:
Format in all cases: cell-based, human
[1] = tested on: hES (H9) and iPS (PLZ) cell-derived myogenic progenitors; assay: RT-qPCR of myotubes differentiated from myogenic progenitors with gamma secretase inhibitors; details: for mRNA expression level of MHC3 compared to non-treated cells / mRNA expression level of Myogenin compared to non-treated cells: 10 uM, KOSR- or horse serum-based media, 5 days at 37° C.
Experimental: (§1) Human induced Pluripotent Stem Cells (hiPSC, PLZ) or Embryonic Stem Cells (hESC, H9) were transduced with the lentiviral constructs pSAM2-PAX7-ires-GFP and pFUGW-rtTA to generate doxycycline-inducible PAX7 (iPAX7) PS-cells as previously reported (Darabi, 2012). iPAX7-PS cells were cultured on matrigel-coated flasks using mTeSR1 medium (Stem Cell Technology). Cells were differentiated to myogenic progenitors as previously described (Darabi and Perlingeiro, 2016). Briefly, iPAX7-PS cells were detached with Accumax and 1×10^6 cells were plated in 6 cm non-adherent Petri dishes with mTeSR1 supplemented with 10 uM Y-27632 (ROCK inhibitor) and incubated at 37° C., 5% CO2 on a shaker at 60 RPM for 48 h. Then, medium was replaced with EB Myogenic (EBM) Medium supplemented with 10 uM […] (GSK3-β inhibitor) and 10 uM Y-27632. Three days later supplements were removed by changing to fresh medium. At day 7, EBs were plated on gelatin-coated flasks with EBM medium+10 ng/ml human basic FGF (bFGF) and three days later 1 ug/ml of doxycycline was added to the medium to induce PAX7 expression. Cells were harvested by trypsinization at day 14 and subsequently FACS sorted for GFP(+) expression. From this point, cells are considered as myogenic progenitors and cultured on gelatin-coated flasks using EBM medium+10 ng/ml bFGF+1 ug/ml Dox.
(§2) For terminal differentiation, myogenic progenitors at P3-P5 were plated on gelatin-coated dishes with EBM medium+10 ng/ml bFGF+1 ug/ml Dox. Upon reaching 100% confluency, medium was removed and replaced with knockout serum replacement (KOSR) or horse serum based terminal differentiation medium (TDM) supplemented with 10 uM DAPT, 10 uM BMS-906024.5 days after terminal differentiation, cells were fixed or collected for RNA analysis.
Differentiated myotubes (5d) were collected with TRIzol (Thermo Fisher Scientific) and RNA was purified using the Direct-zol RNA MiniPrep Plus (Zymo Research) following manufacturer's instructions. cDNA was obtained by RT-PCR using SuperScript VILO (Invitrogen) and qPCR was performed by using the Premix Ex Taq ROX plus (Takara) and TaMan probes (Thermo Fisher Scientific) specific to the genes of interest. qPCR was done with a QuantStudio 6 Flex Real-Time PCR System (Thermo Fisher Scientific). Data was normalized to GAPDH expression.

[2] = tested on: hiPS cell-derived myogenic progenitors; assay: Western blot for MHC8 protein in terminally differentiated myotubes; details: horse serum-based differentiation medium, TUBB loading control
Experimental: as §1, with “Dox. […]” for “Dox.”

[3] = tested on: myotubes derived from hESC-1, hiPSC-1 and hiPSC-2; assay: Small molecule library screening (Tocriscreen Stem Cell Toolbox), MHC/DAPI area ratio; details: terminal differentiation
Experimental: After 24 hours, cells were switched to MM with 1 μg/ml Doxycyline and incubated at 37° C. for 2 days. 1/10th of EBs were then plated on gelatin coated T-75 flasks in MM with 1 μg/ml dox and 5 ng/ml human basic fibroblast growth factor (bFGF). After 4 days, cells were dissociated with 0.25% trypsin-EDTA, FACS sorted for GFP to derive myogenic progenitors which were plated at a density of 2 million/T-75 flask in MM with 1 μg/ml dox and 5 ng/ml bFGF. Once the cells reached 90% confluency, myogenic progenitors were dissociated with 0.25% trypsin-EDTA and passaged at a ratio of 1:6 to 1:8. To induce terminal differentiation, myogenic progenitors at P3-4 were plated at a density of 75,000 cells/24-well plate and allowed to grow confluent for 3 days. The medium was then switched to low nutrient differentiation medium (DM) consisting of DMEM-KO supplemented with 20% KOSR, 1% NEAA, 1% glutamax and 1% penicillin-streptomycin and incubated for five days to derive myotubes. Transplantation Experiment
Small molecule library screening was done using the tocriscreen stem cell toolbox kit (tocris) which consisted of 80 compounds. Myogenic progenitors at passage P3 or P4 were seeded at 12,000 cells/well in 96-well plates (triplicates) and incubated at 37° C. for 3 days to reach 100% confluency. After 3 days, the cells were switched to DM supplemented with 10 μM of the compounds from the library or with DMSO. Cells were incubated in this differentiation medium for 5 days to derive myotubes. Cells were then fixed with 4% PFA and stained for MHC and DAPI. The stained plates were imaged using cytation plate reader and 49 pictures were taken per well to cover most of the area. The images were stitched together and the ratio of area of MHC/DAPI staining was quantified using Image J and normalized to that of DMSO treated cells. […] Different combinations were made with selected compounds and their effect on differentiation was tested and quantified. […]

[4] = tested on: hiPS cell-derived myogenic progenitors; assay: Immunofluorescence staining for MHC and MYOG after terminal differentiation; details: for Myogenin (MYOG) immunofluorescence: clustering of myogenic nuclei / Myosin heavy chain (MHC) immunofluorescence: fusion, myotube thickness: KOSR-based differentiation medium; for Myosin heavy chain (MHC) immunofluorescence: fusion, myotube thickness: versus untreated control
Experimental: as §1, §2
After 5 days of terminal differentiation, cells were washed with PBS and fixed with 4% PFA/PBS for 10 min. Then, cells were permeabilized with 0.3% Triton X-100/PBS for 15 min and blocked with 3% BSA/PBS for 20 min. Cells were incubated with a primary antibody that recognizes all MHC isoforms (MF-20, Developmental Studies Hybridoma Bank) overnight at 4° C. The next day, cells were incubated with an Alexa-555 secondary antibody supplemented with DAPI for 1 h at RT. Cells were analyzed by epifluorescence microscopy.

[5] = horse serum-based differentiation medium, hiPS

CC(NC(=O)Cc1cc(F)cc(F)c1)C(=O)N[C@H](C(=O)OC(C)(C)C)c1ccccc1 (stereo partly shown) [DAPT]
mRNA expression level of MHC3 compared to non-treated cells [1]: increased mRNA expression levels
mRNA expression level of Myogenin compared to non-treated cells [1]: increased mRNA expression levels
expression level of CAPN3 compared to untreated control [1, 5]: 5 fold
expression level of embryonic myosin heavy chain (MHC3) [1, 5]: enhances the expression levels
expression level of neonatal myosin heavy chain (MHC8) [1, 5]: more than 200 fold
neonatal Myosin Heavy Chain (MHC8) protein detection by Western blot [2]: can be detected only in the presence of DAPT
myotube differentiation efficiency [3]: promoted higher myotube differentiation efficiency
Myogenin (MYOG) immunofluorescence: clustering of myogenic nuclei [4]: induce clustering of the myogenic nuclei
Myosin heavy chain (MHC) immunofluorescence: fusion, myotube thickness [4]: improve the fusion of the nuclei to give rise to thick myotubes
efficiency of differentiation by MHC and MYOG immunofluorescence ([4]; horse serum-based (HS) differentiation medium): improves the efficiency of the differentiation

NC(=O)c1ccc(-c2nc(-c3ccc4c(c3)OCO4)c(-c3ccccn3)[nH]2)cc1 [SB 431542]
myotube differentiation efficiency [3]: promoted higher myotube differentiation efficiency

O=C(NOC[C@H](O)CO)c1ccc(F)c(F)c1Nc1ccc(I)cc1F [PD 0325901]
myotube differentiation efficiency [3]: promoted higher myotube differentiation efficiency

CN1C(=O)[C@@H](NC(=O)[C@H](CCC(F)(F)F)[C@H](CCC(F)(F)F)C(N)=O)N=C(c2ccccc2)c2ccccc21 [BMS-906024]
mRNA expression level of MHC3 compared to non-treated cells [1]: increased mRNA expression levels
mRNA expression level of Myogenin compared to non-treated cells [1]: increased mRNA expression levels
Myogenin (MYOG) immunofluorescence: clustering of myogenic nuclei [4]: induce clustering of the myogenic nuclei
Myosin heavy chain (MHC) immunofluorescence: fusion, myotube thickness [4]: improve the fusion of the nuclei to give rise to thick myotubes
